Experimental data published in patent US8524713B2, “Substituted spirocyclic piperidine derivatives as histamine-3 (H3) receptor ligands” (Cephalon, Inc, priority 2008, dated 2013).

Tests used:
human H3 receptor = biological target: T1, human H3 receptor (Homo sapiens, UniProt Q9Y5N1); assay: Human H3 radioligand binding ([3H]-N-alpha-methylhistamine, SPA); settings: membranes of CHO cells expressing human H3 receptor; [3H]-N-alpha-methylhistamine about 1 nM
T1 construct: expressed in transfected cells; membrane preparation
Description: (§1) Methods: CHO cells stably expressing the human H3 receptor (GenBank: NM_007232) were harvested and cell pellets were frozen (−80° C.). Cell pellets were resuspended in 5 mM Tris-HCl, pH 7.5 with […] and a cocktail of protease inhibitors (Complete Protease Inhibitior Tablets, Roche Diagnostics). Cells were disrupted using a polytron cell homogenizer and the suspension was centrifuged at 1000×g for 10 minutes at 4° C. The pellet was discarded and the supernatant centrifuged at 40,000×g for 30 min at 4° C. This membrane pellet was washed in membrane buffer containing 50 mM Tris-HCl, pH 7.5 with 0.6 mM EDTA, 5 mM MgCl2 and protease inhibitors, recentrifuged as above and the final pellet resuspended in membrane buffer plus 250 mM sucrose and frozen at −80° C.
(§2) Radioligand Binding. Membranes were resuspended in 50 mM Tris HCl (pH 7.4), 5 mM MgCl2, 0.1% BSA. The membrane suspensions (10 μg protein per well) were incubated in a 96 well microtiter plate with [^3H]-N-alpha-methylhistamine (approximately 1 nM final concentration), test compounds at various concentrations (0.01 nM-30 μM) and scintillation proximity beads (Perkin Elmer, FlashBlueGPCR Scintillating Beads) in a final volume of 80 μl for 4 hours at room temperature, protected from light. Non-specific binding was determined in the presence of 10 μM clobenpropit. Radioligand bound to receptor, and therefore in proximity to the scintillation beads, was measured using a MicroBeta scintillation counter.

[1] = biological target: T2, rat histamine H3 receptor (Rattus norvegicus, UniProt Q9QYN8); assay: Rat H3 radioligand binding ([3H]-N-alpha-methylhistamine, SPA); settings: membranes of CHO-A3 cells expressing rat H3 receptor; [3H]-N-alpha-methylhistamine about 1 nM
T2 construct: encoding the entire 445-amino-acid rat histamine H3 receptor; expressed in transfected cells; membrane preparation
Description: as §1, with “Cell line development and membrane preparation. The rat” for “Methods: CHO cells stably expressing the human”, “cDNA was PCR amplified from reverse-transcribed RNA pooled from rat thalamus, hypothalamus, striatum and prefrontal cortex with a sequence corresponding to by #338-1672 of Genbank file #NM_053506, encoding the entire 445-amino-acid rat histamine H3 receptor. This was engineered into the pIRES-neo3 mammalian expression vector, which was stably transfected into the CHO-A3 cell line (Euroscreen, Belgium), followed by clonal selection by limiting dilution. Cells” for “(GenBank: NM_007232)”
as §2

T1 sequence (Q9Y5N1 whole entry): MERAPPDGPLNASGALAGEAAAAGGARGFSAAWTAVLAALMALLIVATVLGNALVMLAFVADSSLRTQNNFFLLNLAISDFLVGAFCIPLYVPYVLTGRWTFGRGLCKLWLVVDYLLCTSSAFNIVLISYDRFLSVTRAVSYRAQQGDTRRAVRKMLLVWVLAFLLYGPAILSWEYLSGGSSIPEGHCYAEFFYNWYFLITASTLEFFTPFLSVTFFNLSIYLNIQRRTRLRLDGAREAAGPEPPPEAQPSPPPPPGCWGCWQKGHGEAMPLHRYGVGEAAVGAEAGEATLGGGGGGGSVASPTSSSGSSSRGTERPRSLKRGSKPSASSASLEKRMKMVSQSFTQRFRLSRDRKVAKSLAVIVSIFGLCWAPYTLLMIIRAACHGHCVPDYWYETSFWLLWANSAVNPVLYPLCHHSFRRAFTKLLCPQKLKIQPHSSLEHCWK
T2 sequence (Q9QYN8 whole entry): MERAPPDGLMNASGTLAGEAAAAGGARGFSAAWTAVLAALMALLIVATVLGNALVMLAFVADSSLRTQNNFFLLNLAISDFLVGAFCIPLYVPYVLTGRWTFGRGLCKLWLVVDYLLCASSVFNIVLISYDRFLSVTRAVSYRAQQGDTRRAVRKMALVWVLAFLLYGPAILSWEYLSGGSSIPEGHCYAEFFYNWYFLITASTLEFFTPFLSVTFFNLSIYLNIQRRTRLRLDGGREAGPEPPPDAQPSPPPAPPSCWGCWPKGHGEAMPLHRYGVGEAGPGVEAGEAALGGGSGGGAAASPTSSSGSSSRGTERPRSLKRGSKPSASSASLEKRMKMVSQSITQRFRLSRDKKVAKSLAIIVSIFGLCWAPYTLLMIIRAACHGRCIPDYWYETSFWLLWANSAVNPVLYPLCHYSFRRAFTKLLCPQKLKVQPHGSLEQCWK

SMILES	Ki (human H3 receptor) [µM]	Ki [1] [µM]	melting point [°C]
Cn1nc(-c2ccc3c(c2)CCC2(CCN(C4CCC4)CC2)O3)ccc1=O [Example 20]	< 0.2	< 0.2	147 to 149
Cn1nc(-c2ccc3c(c2)COC2(CCN(C4CCC4)CC2)O3)ccc1=O [Example 27]	< 0.2	< 0.2	185 to 187
O=c1ccc(-c2ccc3c(c2)COC2(CCN(C4CCC4)CC2)O3)n[nH]1 [Example 28]	< 0.2	< 0.2	273 to 275
Cc1cc2c(cc1-c1ccc(=O)[nH]n1)COC1(CCN(C3CCC3)CC1)O2 [Example 29]	0.2 to 1	0.2 to 1	230 to 232
O=c1[nH]nc(-c2ccc3c(c2)COC2(CCN(C4CCC4)CC2)O3)c2ccccc12 [Example 32]	< 0.2	< 0.2	258 to 259
O=c1cc(-c2ccccc2)c(-c2ccc3c(c2)COC2(CCN(C4CCC4)CC2)O3)n[nH]1 [Example 33]	< 0.2	< 0.2	260 to 262
O=C1CCC(c2ccc3c(c2)COC2(CCN(C4CCC4)CC2)O3)=NN1 [Example 36]	< 0.2	< 0.2	192 to 194

Further lines, results first:

Ki (human H3 receptor) [µM]	Ki [1] [µM]	melting point [°C]	SMILES
< 0.2	< 0.2	193 to 194	Clc1ccc(-c2ccc3c(c2)CC2(CCN(C4CCC4)CC2)O3)nn1 [Example 15, 1′-Cyclobutyl-5-(6-chloropyridazin-3-yl)spiro[benzofuran-2(3H)-4′-piperidine]]
< 0.2	< 0.2	227 to 228	O=c1ccc(-c2ccc3c(c2)CC2(CCN(C4CCC4)CC2)O3)n[nH]1 [Example 16, 1′-Cyclobutyl-5-(6-oxo-1,6-dihydropyridazin-3-yl) spiro[benzofuran-2(3H)-4′-piperidine]]
< 0.2	< 0.2	233 to 235	O=c1ccc(Oc2ccc3c(c2)CCC2(CCN(C4CCC4)CC2)O3)n[nH]1 [Example 18]
< 0.2	< 0.2	216 to 219	O=c1cc(-c2ccc3c(c2)CCC2(CCN(C4CCC4)CC2)O3)cn[nH]1 [Example 19]
< 0.2	< 0.2	273 to 275	O=c1ccc(-c2ccc3c(c2)CCC2(CCN(C4CCC4)CC2)O3)n[nH]1 [Example 21]
